This note sets out measurements from US12492188B2, “1H-benzo[D]imidazole derivatives as TLR9 inhibitors for the treatment of fibrosis” (BRISTOL-MYERS SQUIBB COMPANY, priority 2020, dated 2025).

Common to all, as to format: cell-based
Test [1] has as its target T1, human TLR9 (Homo sapiens, UniProt Q9NR96).
T1 construct: host or cells: HEK-Blue cells (HEK293-derived reporter line)
T1 sequence (Q9NR96 26-1032): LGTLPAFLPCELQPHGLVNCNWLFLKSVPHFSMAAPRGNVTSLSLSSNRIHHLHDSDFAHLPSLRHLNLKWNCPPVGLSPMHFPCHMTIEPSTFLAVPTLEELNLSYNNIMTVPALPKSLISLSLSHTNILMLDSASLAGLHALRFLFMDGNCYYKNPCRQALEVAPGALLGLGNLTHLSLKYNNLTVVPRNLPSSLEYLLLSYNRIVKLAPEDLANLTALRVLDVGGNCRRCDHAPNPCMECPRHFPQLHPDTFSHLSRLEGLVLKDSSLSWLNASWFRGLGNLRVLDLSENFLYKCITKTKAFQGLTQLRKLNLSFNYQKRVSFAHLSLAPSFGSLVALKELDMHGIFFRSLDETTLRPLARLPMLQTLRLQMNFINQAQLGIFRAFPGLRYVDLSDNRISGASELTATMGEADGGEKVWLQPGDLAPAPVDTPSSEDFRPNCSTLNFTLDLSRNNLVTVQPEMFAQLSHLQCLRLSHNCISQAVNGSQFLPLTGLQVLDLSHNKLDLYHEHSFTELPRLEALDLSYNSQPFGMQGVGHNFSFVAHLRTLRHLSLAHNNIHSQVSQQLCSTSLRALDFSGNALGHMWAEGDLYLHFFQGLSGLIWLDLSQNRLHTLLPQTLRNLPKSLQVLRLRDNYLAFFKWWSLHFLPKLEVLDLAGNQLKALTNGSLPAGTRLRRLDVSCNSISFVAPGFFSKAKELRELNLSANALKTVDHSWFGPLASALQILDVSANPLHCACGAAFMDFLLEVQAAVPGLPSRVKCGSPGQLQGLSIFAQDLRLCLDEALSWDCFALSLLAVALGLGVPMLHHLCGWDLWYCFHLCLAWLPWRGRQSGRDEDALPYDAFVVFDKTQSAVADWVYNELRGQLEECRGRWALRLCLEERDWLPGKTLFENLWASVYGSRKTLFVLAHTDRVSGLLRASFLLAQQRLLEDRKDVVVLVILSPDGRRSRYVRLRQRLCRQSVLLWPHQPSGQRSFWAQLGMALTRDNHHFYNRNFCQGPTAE
The experiment in a line: TLR9 inhibition reporter assay (HEK-Blue cells, secreted embryonic alkaline phosphatase reporter). The gist of the method:
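Cells seeded at 15000 (TLR7), 20,000 (TLR8) or 25,000 (TLR9) per well; compound 0.05 nM–50 μM, 30 min RT pre-incubation. Agonists: gardiquimod 7.5 μM, R848 15.9 μM, ODN2006 5 nM respectively. 22 h, 37 °C; SEAP via HEK-Blue Detection; % inhibition vs agonist+DMSO and known-inhibitor wells.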

For test [2], the target named is T2, human TLR7 (Homo sapiens, UniProt Q9NYK1).
T2 construct: host or cells: HEK-Blue cells (HEK293-derived reporter line)
T2 sequence (Q9NYK1 27-1049): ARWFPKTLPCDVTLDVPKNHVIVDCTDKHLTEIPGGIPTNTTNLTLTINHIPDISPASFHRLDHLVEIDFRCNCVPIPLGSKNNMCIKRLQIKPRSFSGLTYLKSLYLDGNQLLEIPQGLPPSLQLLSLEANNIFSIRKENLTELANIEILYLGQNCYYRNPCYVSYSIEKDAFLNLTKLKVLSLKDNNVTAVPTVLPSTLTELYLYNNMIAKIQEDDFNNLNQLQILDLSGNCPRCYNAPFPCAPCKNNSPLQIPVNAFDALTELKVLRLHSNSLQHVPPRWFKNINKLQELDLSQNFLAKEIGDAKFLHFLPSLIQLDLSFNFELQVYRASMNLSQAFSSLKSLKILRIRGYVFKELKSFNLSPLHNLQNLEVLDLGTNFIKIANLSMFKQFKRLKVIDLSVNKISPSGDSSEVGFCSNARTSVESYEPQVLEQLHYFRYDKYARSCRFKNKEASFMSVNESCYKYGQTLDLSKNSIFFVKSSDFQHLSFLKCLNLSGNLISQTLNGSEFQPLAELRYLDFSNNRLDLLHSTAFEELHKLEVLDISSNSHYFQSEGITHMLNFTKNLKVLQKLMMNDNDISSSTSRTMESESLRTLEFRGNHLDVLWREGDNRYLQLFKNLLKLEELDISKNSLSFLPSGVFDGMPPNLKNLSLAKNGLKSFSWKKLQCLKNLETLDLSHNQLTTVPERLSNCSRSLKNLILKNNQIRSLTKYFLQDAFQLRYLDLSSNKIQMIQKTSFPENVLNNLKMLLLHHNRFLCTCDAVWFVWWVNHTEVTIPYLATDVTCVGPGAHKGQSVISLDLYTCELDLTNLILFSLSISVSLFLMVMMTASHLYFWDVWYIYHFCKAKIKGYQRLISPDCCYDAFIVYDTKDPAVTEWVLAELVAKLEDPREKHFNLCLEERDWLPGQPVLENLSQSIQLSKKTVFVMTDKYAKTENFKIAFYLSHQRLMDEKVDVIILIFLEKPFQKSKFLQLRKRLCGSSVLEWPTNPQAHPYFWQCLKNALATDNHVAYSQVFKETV
The experiment in a line: TLR7 inhibition reporter assay (HEK-Blue cells, secreted embryonic alkaline phosphatase reporter). As to conditions: HEK-Blue cells overexpressing human TLR7, stimulated with gardiquimod 7.5 μM; read-out: TLR 7 IC50. The procedure: (§1) TLR7/8/9 Inhibition Reporter Assays
(§2) HEK-Blue™-cells (Invivogen) overexpressing human TLR7, TLR8 or TLR9 receptors were used for screening inhibitors of these receptors using an inducible SLAP (secreted embryonic alkaline phosphatase) reporter gene under the control of the […] minimal promoter fused to five NF-κB and AP-1-binding sites. Briefly, cells are seeded into Greiner 384 well plates (15000 cells per well for TLR7, 20,000 for TLR8 and 25,000 for TLR9) and then treated with test compounds in DMSO to yield a final dose response concentration range of 0.05 nM-50 μM. After a 30 minute compound pre-treatment at room temperature, the cells are then stimulated with a TLR7 ligand (gardiquimod at a final concentration of 7.5 μM), TLR8 ligand (R848 at a final concentration of 15.9 μM) or TLR9 ligand (ODN2006 at a final concentration of 5 nM) to activate NF-κB and AP-1 which induce the production of SLAP. After a 22 hour incubation at 37° C., […], SLAP levels are determined with the addition of HEK-Blue™ Detection reagent (Invivogen), a cell culture medium that allows for detection of SLAP, according to manufacturer's specifications. The percent inhibition is determined as the […] in the HEK-Blue signal present in wells treated with agonist plus DMSO alone compared to wells treated with a known inhibitor.

The target of test [3] is T3, human TLR8 (Homo sapiens, UniProt Q9NR97).
T3 construct: host or cells: HEK-Blue cells (HEK293-derived reporter line)
T3 sequence (Q9NR97 27-1041): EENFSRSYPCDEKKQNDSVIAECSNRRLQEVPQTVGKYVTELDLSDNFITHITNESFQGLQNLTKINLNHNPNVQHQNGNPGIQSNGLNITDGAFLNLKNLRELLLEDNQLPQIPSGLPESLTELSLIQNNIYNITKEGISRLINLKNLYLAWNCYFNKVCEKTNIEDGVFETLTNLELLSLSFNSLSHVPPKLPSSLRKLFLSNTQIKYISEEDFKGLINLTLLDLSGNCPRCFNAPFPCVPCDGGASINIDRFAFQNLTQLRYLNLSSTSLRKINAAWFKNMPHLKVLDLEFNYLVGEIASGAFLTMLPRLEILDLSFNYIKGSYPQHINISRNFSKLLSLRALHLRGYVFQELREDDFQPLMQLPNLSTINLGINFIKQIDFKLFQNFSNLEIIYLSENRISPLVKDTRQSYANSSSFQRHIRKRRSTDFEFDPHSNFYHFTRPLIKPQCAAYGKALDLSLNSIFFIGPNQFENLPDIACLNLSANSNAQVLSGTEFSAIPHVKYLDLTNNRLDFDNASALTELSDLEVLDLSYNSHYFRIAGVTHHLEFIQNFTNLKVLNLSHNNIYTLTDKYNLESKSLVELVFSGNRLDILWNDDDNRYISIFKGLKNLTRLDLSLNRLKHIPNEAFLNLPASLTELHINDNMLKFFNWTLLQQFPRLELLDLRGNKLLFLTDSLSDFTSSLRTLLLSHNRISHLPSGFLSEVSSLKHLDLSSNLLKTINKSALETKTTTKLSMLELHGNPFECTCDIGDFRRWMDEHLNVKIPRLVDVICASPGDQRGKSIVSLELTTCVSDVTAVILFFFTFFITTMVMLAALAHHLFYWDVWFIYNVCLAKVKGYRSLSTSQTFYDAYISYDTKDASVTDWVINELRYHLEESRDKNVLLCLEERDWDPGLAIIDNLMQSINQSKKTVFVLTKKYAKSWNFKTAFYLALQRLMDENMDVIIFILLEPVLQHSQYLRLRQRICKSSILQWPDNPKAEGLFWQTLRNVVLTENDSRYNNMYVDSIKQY
The experiment in a line: TLR8 inhibition reporter assay (HEK-Blue cells, secreted embryonic alkaline phosphatase reporter). Particulars: HEK-Blue cells overexpressing human TLR8, stimulated with R848 15.9 μM; read-out: TLR 8 IC50. The procedure:
as §1, §2

Setting [4] is: HEK-Blue cells overexpressing human TLR9, stimulated with ODN2006 5 nM, 22 hour incubation, reporter readout.
The mark [5] stands for this setting: HEK-Blue cells overexpressing human TLR9, stimulated with ODN2006 5 nM, read-out: TLR 9 IC50.

Like-named read-outs stand apart in the source and are kept apart here.

Consider `COc1ccc(-c2nc3c(C)cc(C4CCN(C5CCN(C6CC6)CC5)CC4)cc3[nH]2)cc1F` [Example 57, 6-(1′-cyclopropyl-[1,4′-bipiperidin]-4-yl)-2-(3-fluoro-4-methoxyphenyl)-4-methyl-1H-benzo[d]imidazole], for which the 50% inhibitory concentration (IC50) in test [1] (setting [4]) was 170 nM; in test [1] (setting [5]) it was 171 nM; in test [2], 16 µM; in test [3], above 50 µM.

With `Cc1cc(-c2ccc(C3CCN(C4CCN(C)CC4)CC3)cc2)cc2c1nc(-c1ccc(S(C)(=O)=O)cc1)n2C` [Example 400, 1,4-dimethyl-6-(4-(1′-methyl-[1,4′-bipiperidin]-4-yl)phenyl)-2-(4-(methylsulfonyl)phenyl)-1H-benzo[d]imidazole], the concentration for half-maximal inhibition (IC50) in test [1] (setting [4]) stood at 76 nM; in test [1] (setting [5]), 76 nM; in test [2], 1.5 µM; in test [3], 1.3 µM.

For the compound `CC(C)N1C2CCC1CC(N1CCC(c3ccc4c(nc(-c5ccc(S(C)(=O)=O)cc5)n4C)c3F)CC1)C2` (single isomer, unassigned) [Example 90, 4-fluoro-5-(1-(8-isopropyl-8-azabicyclo[3.2.1]octan-3-yl)piperidin-4-yl)-1-methyl-2-(4-(methylsulfonyl)phenyl)-1H-benzo[d]imidazole], the half-maximal inhibitory concentration (IC50) is 230 nM in test [1] (setting [4]), 231 nM in test [1] (setting [5]), above 50 µM in test [2] and above 50 µM in test [3].

Take `CC(C)N1CCCC(N2CCC(c3ccc4nc(-c5ccc(S(C)(=O)=O)cc5)n(C)c4c3F)CC2)CC1` (single isomer, unassigned) [Example 113, 7-fluoro-6-(1-(1-isopropylazepan-4-yl)piperidin-4-yl)-1-methyl-2-(4-(methylsulfonyl)phenyl)-1H-benzo[d]imidazole]: the half-maximal inhibitory concentration (IC50) in test [1] (setting [4]) was 32 nM; in test [2], above 50 µM; in test [3], above 50 µM.

Regarding `Cc1cc(-c2ccc(CN3CCC(N4CCCC4)CC3)c(F)c2)cc2c1nc(-c1ccc(S(C)(=O)=O)cc1)n2C` [Example 387, 6-(3-fluoro-4-((4-(pyrrolidin-1-yl)piperidin-1-yl)methyl)phenyl)-1,4-dimethyl-2-(4-(methylsulfonyl)phenyl)-1H-benzo[d]imidazole], the IC50 in test [1] (setting [4]) is 56 nM; in test [1] (setting [5]), 56 nM; in test [3], 7.3 µM.

Consider `Cn1c(-c2ccc(S(C)(=O)=O)cc2)nc2c(F)cc(C3CCN(C4CC5CCC(C4)N5C4COC4)CC3)cc21` (centres unmarked) [Example 287, 4-fluoro-1-methyl-2-(4-(methylsulfonyl)phenyl)-6-(1-(8-(oxetan-3-yl)-8-azabicyclo[3.2.1]octan-3-yl)piperidin-4-yl)-1H-benzo[d]imidazole], for which the values for the concentration for half-maximal inhibition (IC50) in test [1] (setting [5]), in test [1] (HEK-Blue human TLR9 reporter cells) and in test [3] were 104 nM, 100 nM and above 50 µM, respectively.

As for `COc1ccc(-c2nc3cc(C4CCN(C5CCN(C6CC6)CC5)CC4)ccc3n2C)cc1OC` [Example 35, 5-(1′-cyclopropyl-[1,4′-bipiperidin]-4-yl)-2-(3,4-dimethoxyphenyl)-1-methyl-1H-benzo[d]imidazole], the IC50 in test [1] (setting [4]) was 850 nM; in test [1] (setting [5]), 852 nM; in test [3] it was above 50 µM.

On to `COc1cc(-c2nc3c(C)cc(C4CCN(C5CC6CCC(C5)N6CC(C)C)CC4)cc3n2C)cn2ncnc12` (centres unmarked) [Example 126, 6-(6-(1-(8-isobutyl-8-azabicyclo[3.2.1]octan-3-yl)piperidin-4-yl)-1,4-dimethyl-1H-benzo[d]imidazol-2-yl)-8-methoxy-[1,2,4]triazolo[1,5-a]pyridine], for which the IC50 in test [1] (setting [4]) was 590 nM; in test [1] (setting [5]), 588 nM; in test [3], 4.5 µM.

For the compound `Cn1c(-c2ccc(S(C)(=O)=O)cc2)nc2ccc(C3CCN(C4CC5CCC(C4)N5C4COC4)CC3)c(F)c21` (centres unmarked) [Example 272, 7-fluoro-1-methyl-2-(4-(methylsulfonyl)phenyl)-6-(1-(8-(oxetan-3-yl)-8-azabicyclo[3.2.1]octan-3-yl)piperidin-4-yl)-1H-benzo[d]imidazole], the results for the IC50 in test [1] (setting [5]) and in test [3] were 600 nM and above 50 µM, respectively.
